According to patent publication US8148392B2, “2-indolyl imidazo [4,5-d] phenanthroline derivatives and their use in the treatment of cancer” (Lorus Therapeutics Inc., priority 2005, dated 2012):
“Also recorded” adds a separate entry of the source.

Assays:
[1] = test system: MOLT-4 leukemia cell line; assay: NCI DTP in vitro screen, MOLT-4; assay type: cell-based; conditions: Homo sapiens
Description: (§1) For example, the following methodology, which is currently employed by the NCI, can be used to assess the GI50 of a candidate compound of Formula I in the selected cancer cell lines. Briefly, cell suspensions are diluted (5000-40,000 cells per well) and 100 μL of the diluted cell suspension is added into 96-well microtiter plates. Inoculates are allowed a preincubation period of 24 h at 37° C. for stabilization. Dilutions at twice the intended test concentration of the candidate compound are added at time zero in 100 μL aliquots to the microtiter plate wells. Test compounds are generally evaluated at five 10-fold dilutions. In routine testing, the highest well concentration is usually 10E-4 M, but this may be adjusted depending on the compound being tested. […] The cells are then assayed by using the sulforhodamine B assay (see, for example, Skehan, P., et al. (1990) JNCI, J. Natl. Cancer Inst. 82, 1107-1112; and Chen, S. F., et al. (1990) Proc. Am. Assoc. Cancer Res. 31, A2644) employing a plate reader which can be used to read the optical densities.
(§2) Compounds 2 and 3 were evaluated for their antiproliferative effects in a panel of 60 human cancer cell lines as part of the in vitro anticancer screening services provided by the DTP (Developmental Therapeutics Program) of the US National Cancer Institute (NCI).

[2] = test system: HT-29 cells; assay: HT-29 cell proliferation (XTT) after knock-down of KLF4 gene by siRNA; assay type: cell-based, human; conditions: HT-29, XTT
Description: Small interfering RNA (siRNA) transfection was performed as follows. Pre-designed MTF-1 siRNA (ID #115734) (Ambion, Austin, Tex.) was used to knockdown endogenous MTF-1 mRNA. Similarly, pre-designed KLF4 siRNA (ID #115492) (Ambion, Austin, Tex.) was used to knockdown endogenous KLF4 mRNA. A nonspecific, double-stranded RNA
was synthesized at Qiagen (Cambridge, Mass.) based on the sequence of an unrelated gene. HT-29 cells (3×10^5 cells in 35 mm-culture dishes) were transfected with indicated concentrations of siRNA or scrambled RNA control using Lipofectamine™ 2000 transfection reagent (Invitrogen) by following the manufacturer's instruction, for 6 hr. At the end of the incubation period, the transfection medium was supplemented with a complete growth medium and the cells were incubated at 37° C. for 24 hr before indicated experiments.

[3] = test system: MTF-1; assay: MTF-1 binding to Cyclin D1 promoter, ChIP, HT-29; assay type: cell-based, human; conditions: HT-29, 16 hr, versus basal level
Description: To examine decreased MTF-1 binding to the promoter region of the MTF-1-targeted gene, cell-cycle regulatory gene Cyclin D1, HT-29 cells were treated with compound 3 for 16 hr and MTF-1 binding to Cyclin D1 promoter was assessed by chromatin immuno-precipitation assay (ChIP) (Active Motif, Carlsbad, Calif.). At the end of 16 hr treatment with compound 3, the cells were fixed with 1% formaldehyde to cross-link transcriptions factors and their target chromatin. Chromatin complexes were sheared and MTF-1-bound chromatin was pulled down by using antibody to MTF-1 (Santacruz Biotechnology Inc.). Cross-linking was reversed and the MTF-1-associated DNA was amplified by polymerase chain reaction using the primers encompassing −231 to −92 region of Cyclin D1 promoter. The 5′ primer (5′-CGGACTACAGGGGCAA-3′) [SEQ ID NO:1] and the 3′ primer (5′-GCTCCAGGACTTTGCA-3′) [SEQ ID NO:2] were synthesized at Invitrogen.

[4] = test system: Sp1; assay: Sp1 binding to Cyclin D1 promoter, ChIP, HT-29; assay type: cell-based, human; conditions: HT-29, ChIP
Description: Based on overlapping transcription factor binding sites on Cyclin D1 gene promoter region (FIG. 33A), increased binding of a negative regulator KLF4 may replace the binding of a positive regulator Sp1. In vivo KLF4 and Sp1 binding to Cyclin D1 promoter was shown by chromatin immuno-precipitation assay (ChIP) (FIG. 33B).
Chromatin immunoprecipitation (ChIP) was performed as follows. Cell lysates from HT-29 cells (5.5×10^5 cells in three 15 cm-culture plates in each experimental group) were prepared at the end of the indicated experiments, and ChIP assays were performed using anti-KLF4 and anti-Sp1 antibodies (Santa Cruz Biotechnology Inc.) and ChIP-ITTM kit (Active Motif, Carlsbad, Calif.) by following the manufacturer's instruction. The primers encompassing-231 to -92 region of Cyclin D1 promoter; 5′ primer (5′-CGGACTACAGGGGCAA-3′) [SEQ ID NO:1] and 3′ primer (5′-GCTCCAGGACTTTGCA-3′) [SEQ ID NO:2] were synthesized at Invitrogen.

[5] = test system: Egr-1; assay: Egr-1 gene expression in HT-29 cells, RT-PCR; assay type: cell-based, human
Description: Like Sp1, Egr-1 also is a transcription factor with zinc finger DNA-binding domains, which recognizes GC-rich sequences in the regulatory promoter region of the targeted gene (Al-Sarraj et al., (2005) J. Cell Biochem. 94(1): 153-167). Changes in Egr-1 gene expression were detected in compound 3-treated HT-29 cells by RT-PCR (FIG. 44A) as follows. HT-29 cells were treated with 1 μM compound 3 for the indicated times. Total RNA was extracted and gene expression level was determined by RT-PCR. To determine the effects of zinc supplement, HT-29 cells were treated with 1 μM compound 3, 35 μM ZnCl2 or compound 3 and ZnCl2 together for 8 hr. Egr-1 gene expression was determined by RT-PCR (FIG. 44B).

[6] = test system: Cyclin D1 protein; assay: Cyclin D1 protein in HT-29 cells, Western blotting; assay type: cell-based, human; conditions: HT-29, 1 μM
Description: Gene and protein expression of Cyclin D1 after treatment with compound 3 was determined by RT-PCR and Western blotting as shown in FIGS. 43A and 43B, respectively, as follows. HT-29 cells were treated with 1 μM compound 3 for indicated time. Total RNA was extracted and gene expression level was determined by RT-PCR. Cyclin D1 protein expression in HT-29 cell lysate was determined by SDS-PAGE followed by Western blotting.
To identify the cell cycle regulatory pathway involved in compound 3-mediated cell cycle arrest as shown in Example 23 and 41, particularly associated with G1/S phase, expression of the key cell cycle regulator of G1/S phase progression, Cyclin D1, was examined.

[7] = test system: fourth leukemia cell line (a myeloma cell line); assay: NCI DTP in vitro screen, fourth leukemia cell line; assay type: cell-based; conditions: Homo sapiens
Description: as §1, §2

[8] = test system: Cyclin E; assay: Cyclin E protein in HT-29 cells, Western blotting; assay type: cell-based, human; conditions: HT-29, 1 μM

In the case of `Cc1[nH]c2ccccc2c1-c1nc2c3cccnc3c3ncccc3c2[nH]1` [Compound 3], the GI50 [1] is reported as 0.016 µM, the “cell growth inhibition after knock-down of KLF4 gene by siRNA” value [2] is reported as “loss of compound 3-mediated cell growth inhibition” and the “MTF-1 binding to Cyclin D1 promoter” value [3] is reported as “Decreased MTF-1 binding to Cyclin D1 promoter”. For the same compound, the “Sp1 binding to Cyclin D1 promoter” value [4] was “decreased Sp1 binding”, the “Egr-1 expression change with zinc supplement” value ([5]; HT-29, 1 μM compound plus 35 μM ZnCl2, 8 hr) was “reversible upon addition of zinc supplement” and the Egr-1 gene expression ([5]; HT-29, 1 μM, as early as 2 hr) was “significant increase in Egr-1 gene expression”. For the same compound, the “Cyclin D1 protein expression” value [6] was “decrease in both gene (FIG. 43A) and protein (FIG. 43B) levels of Cyclin D1; also recorded: Decreased protein expression of Cyclin D1”, the GI50 [7] was 2.88 µM and the “Cyclin E expression” value [8] was “decreased expression of Cyclin E”.
